# Laboratory results from patent publication US6852696B2, “Inhibitors of glycosaminoglycans” (The University of Texas System, priority 1999, dated 2005).
# “Also recorded” adds a separate entry of the source.
# Columns and labels:
# [1] = system: B16-F10 melanoma cells; assay: Experimentally induced lung metastasis of i.v. infused B16-F10 melanoma cells; format: in vivo, C57BL/6 mice; conditions: simultaneous i.v. injection with B16-F10 cells
# Procedure: (§1) FIGS. 4A-C. Impact of Pep-1 on lung metastasis of melanoma. (FIG. 4A) B16-F10 melanoma cells were suspended (4×10^5 cells/ml) in PBS containing Pep-1 monomer (2 or 3 mg/ml) (circles) or 2% DMSO alone (triangles). C57BL/6 mice received i.v. injection of these cell suspensions (500 μl/animal) and were examined for survival. Data shown are the cumulative survival curves from four independent experiments (n=37 for Pep-1 and n=20 for PBS control). […] (FIG. 4B) B16-F10 melanoma cells (1×10^5 cells/animal) were s.c. injected into the back of C57BL/6 mice. Pep-1 or RP (40 μg/injection) was injected locally into the tumor inoculation sites 0. 3. and 6 days after tumor injection. Data shown are the means+/−s.e.m. (n=10) of tumor sizes and tumor weights measured 10 days after tumor inoculation. (FIG. 4C) B16-F10 melanoma cells (2×10^5 cells/well) were cultured in the presence of the indicated concentrations of Pep-1 (closed circles) or PR (open circles). Data shown are the means+/−s.e.m.(n=3) of ^3H-thymidine uptake at 24 hr.
# In the model, melanoma cells and Pep-1 (or random peptide control or PBS alone) were injected together intravenously into syngeneic C57BL/6 mice and lung metastasis was examined macroscopically and by following-up the survival of mice. […] The inventors will also examine the prophylactic and therapeutic potentials of multimeric Pep-1 formulations and other chemically modified Pep-1 derivatives using this animal model of melanoma metastasis.
# [2] = system: Langerhans cells (LC); assay: DNFB-induced LC maturation (CD86 expression by IA+ epidermal cells); format: in vivo, BALB/c mice; conditions: two local injections, 40 μg/injection/ear, 24 and 3 hours before DNFB
# From the text: FIGS. 6A-C. Impact of Pep-1 on hapten-induced LC maturation. (FIG. 6A) Epidermal cells isolated from BALB/c mice at 17 hr after topical application of 0.5% DNFB or vehicle alone were double-stained with FITC-conjugated anti-IA mAb and PE-conjugated anti-CD86 mAb. Data shown are representative two-color FACS profiles, documenting marked elevated surface expression of CD86 by IA^+ epidermal cells (i.e., LC) after DNFB application. (FIG. 6B) BALB/c mice received subcutaneous two local injections of Pep-1 or RP (40 μg/injection/ear) 24 and 3 hours before topical application of 0.5% DNFB and epidermal cells were isolated 17 hr later to examine the expression levels of CD86 on LC. […] (FIG. 6C) Graphical representation of the % CD86^+ cells/IA^+ LC from three independent experiments described in (FIG. 6B) with circles, triangles, and squares showing corresponding pairs in each experiment. Bars represent the mean values (n=3) and the asterisk indicates statistically significant difference between the Pep-1 and the RP panels (*p<0.03 by the Mann-Whitney U test).
# A critical question concerns the physiological significance of the above finding. Topical application of haptens is known to trigger not only LC migration from the epidermis, but also their maturation. […]
# [3] = systemic, local, or topical administration; co-pending application; cited from earlier work
# [4] = system: Langerhans cells (LC); assay: Hapten (DNFB)-triggered LC emigration from the epidermis; format: in vivo, BALB/c mice; conditions: two local injections before DNFB
# Procedure: FIG. 3. Impact of multimeric Pep-1 derivatives on hapten-induced LC migration. BALB/c mice received two local injections of the indicated Pep-1 derivatives in the right ear (closed circles) and the indicated RP derivatives in the left ear 24 and 3 hours before topical application of 0.5% DNFB on both ears. All the peptides were administered at the identical dose in terms of the molarity ([…]) of the 16-mer Pep-1 peptide sequence, i.e., 40 μg/injection/ear for monomeric Pep-1 and RP, […] for dimeric Pep-1 and RP, or 160 μg/injection/ear for PEG-conjugated tetrameric Pep-1 and RP. Ear skin samples were harvested at the indicated time points after DNFB painting and examined for surface densities of IA^+ LC. Data shown are the means+/−s.e.m.(n=3) of % LC emigration as calculated by dividing from the formula: [(LC number before DNFB application−LC number after DNFB application)/LC number before DNFB application]×100. Asterisks indicate statistically significant differences between the Pep-1 and the RP panels (**p<0.01 by two-tailed Student's t-test).
# Pep-1 and its dimeric and tetrameric derivatives were compared for their in vivo activities to prevent hapten-triggered LC emigration from the epidermis.
# [5] = system: B16-F10 melanoma cells; assay: Local growth of s.c. inoculated B16-F10 melanoma; format: in vivo, C57BL/6 mice; conditions: 40 μg/injection locally, days 0, 3, 6; measured day 10
# Procedure: as §1
# [6] = system: DC-associated HA; assay: Binding of biotinylated peptide to DC surfaces; conditions: biotinylated form
# Procedure: FIGS. 8B-D. Synthesis and surface expression of HA by DC. (B) XS106 DC were labeled with ^3H-glucosamine and then examined for the incorporation of hyaluronidase-sensitive radioactivities (means+/−s.e.m.; n=5) into the indicated subcellular fractions. (C) XS106 DC were incubated with biotinylated Pep-1 or RP and then with PE-conjugated streptavidin (filed histograms) (Mummert et al. J. Exp. Med. 192:769-779, 2000) or bovine testis hyaluronidase. Baseline staining levels with PE-streptavidin alone are shown with open histograms. (D) The indicated DC preparations were examined for binding of biotinylated Pep-1 (filled) and RP (open). Peptide binding to splenic DC and bone marrow-DC was examined within the CD11c^+ populations.
sequence,measurement,setting,value
GAHWQFNALTVR [Pep-1],survival of recipient animals,[1],prolonged the survival of recipient animals significantly
same,survival of recipient animals,[1]; listed as Pep-1 monomer,Statistically significant difference (p<0.01 by the log-rank test)
same,extent of lung metastasis,[1]; vs RP control,reduced the extent of lung metastasis significantly
same,prevention of DNFB-induced LC maturation (CD86 up-regulation),[2],prevented this DNFB-induced LC maturation; also recorded: is prevented
same,inhibition of contact hypersensitivity responses,[3],inhibited the expression of contact hypersensitivity responses
same,inhibition of LC emigration,[4]; 24 hr after DNFB application,inhibited LC emigration almost completely
same,inhibition of LC emigration,[4]; 48 hr after DNFB application,kinetics comparable to those observed in the control group receiving random peptide (RP) injections
same,inhibition of LC emigration,[4]; 72 hr after DNFB application,kinetics comparable to those observed in the control group receiving random peptide (RP) injections
same,effect on local growth in animals following s.c. inoculation,[5],no apparent effects
same,"binding to other DC preparations (XS52 DC, splenic DC, bone marrow-derived DC)",[6],bound to all other tested DC preparations
same,binding to surfaces of XS106 DC,[6],bound to the surfaces of XS106 DC
same,binding to DC after hyaluronidase pretreatment,[6]; hyaluronidase pretreatment of DC,abolished almost completely
